Laboratory results reported in ChEMBL document CHEMBL1201862, “PubChem BioAssay data set” (2004).
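The compound was tested at five concentrations on cells cultured in 96-well plates, with a 48-hour exposure period. GI50: concentration for 50% inhibition of growth.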 Calls of active or inactive are those of the source. Cut-off read from the data, not from the text of the source: active = GI50 up to about 1.1 µM and inactive = higher.

How the values were obtained:
Assay in all cases: NCI tumour cell line growth inhibition, 48 h
DLD-1 = tested on: DLD-1
DU-145 = tested on: DU-145
EKVX = tested on: EKVX
HCT-116 = tested on: HCT-116
HL-60 = tested on: HL-60
HOP-18 = tested on: HOP-18
K562 = tested on: K562
KM-20L2 = tested on: KM-20L2
MCF7 = tested on: MCF7
MDA-MB-435 = tested on: MDA-MB-435
MOLT-4 = tested on: MOLT-4
NCI-H522 = tested on: NCI-H522
NCI/ADR-RES = tested on: NCI/ADR-RES
OVCAR-4 = tested on: OVCAR-4
OVCAR-5 = tested on: OVCAR-5
RXF 631 = tested on: RXF 631
T47D = tested on: T47D
TK-10 = tested on: TK-10
UO-31 = tested on: UO-31
786-0 = tested on: 786-0
A549 = tested on: A549
ACHN = tested on: ACHN
BT-549 = tested on: BT-549
CAKI-1 = tested on: CAKI-1
CCRF-CEM = tested on: CCRF-CEM
COLO 205 = tested on: COLO 205
DMS-114 = tested on: DMS-114
DMS-273 = tested on: DMS-273
HCC 2998 = tested on: HCC 2998
HOP-62 = tested on: HOP-62
HOP-92 = tested on: HOP-92
HT-29 = tested on: HT-29
Hs-578T = tested on: Hs-578T
IGROV-1 = tested on: IGROV-1
KM12 = tested on: KM12
LOX IMVI = tested on: LOX IMVI
LXFL 529 = tested on: LXFL 529
M14 = tested on: M14
M19-MEL = tested on: M19-MEL
MDA-MB-231 = tested on: MDA-MB-231
MDA-N = tested on: MDA-N
Malme-3M = tested on: Malme-3M
NCI-H460 = tested on: NCI-H460
OVCAR-8 = tested on: OVCAR-8
PC-3 = tested on: PC-3
RPMI-8226 = tested on: RPMI-8226
SF-268 = tested on: SF-268
SF-295 = tested on: SF-295
SK-MEL-28 = tested on: SK-MEL-28
SK-MEL-2 = tested on: SK-MEL-2
SK-MEL-5 = tested on: SK-MEL-5
SN12C = tested on: SN12C
SNB-75 = tested on: SNB-75
SNB-78 = tested on: SNB-78
SR = tested on: SR
SW-620 = tested on: SW-620
U-251 = tested on: U-251
UACC-257 = tested on: UACC-257
UACC-62 = tested on: UACC-62
XF498 = tested on: XF498

Measured: GI50

COc1cc2c(c(OC)c1OC)-c1ccc(OC)c(=O)cc1[C@@H](NC(C)=O)CC2 [COLCHICINE]
active: DLD-1 0.0625 µM | DU-145 0.659 µM | HCT-116 0.0168 µM | HL-60 < 0.0625 µM | K562 0.0135 µM | KM-20L2 < 0.0625 µM | MCF7 0.0625 µM | MDA-MB-435 < 0.01 µM | MOLT-4 0.0237 µM | NCI-H522 0.0119 µM | NCI/ADR-RES 0.845 µM | RXF 631 0.0363 µM | UO-31 0.56 µM
inactive: EKVX 49 µM | HOP-18 > 68.9 µM | OVCAR-4 12.9 µM | OVCAR-5 7.18 µM | T47D > 78.3 µM | TK-10 23.7 µM

COc1ccc(/C=C\c2cc(OC)c(OC)c(OC)c2)c(O)c1O [COMBRETASTATIN A-1]
inactive: COLO 205 6.65 µM | EKVX 1.99 µM | HOP-18 > 26.4 µM | HT-29 7.03 µM | IGROV-1 1.57 µM | KM-20L2 8.93 µM | OVCAR-4 2.2 µM | OVCAR-5 4.37 µM | SK-MEL-28 5.41 µM | SNB-75 1.31 µM | SR 2.07 µM | T47D > 49.9 µM | TK-10 2.92 µM
active: 786-0 0.69 µM | A549 0.178 µM | ACHN 0.203 µM | BT-549 < 0.0223 µM | CAKI-1 0.238 µM | CCRF-CEM 0.0682 µM | DLD-1 0.123 µM | DMS-114 0.104 µM | DMS-273 0.05 µM | DU-145 0.0127 µM | HCC 2998 0.166 µM | HL-60 0.0698 µM | HOP-62 0.0893 µM | HOP-92 0.112 µM | Hs-578T < 0.01 µM | K562 0.05 µM | KM12 0.0658 µM | LOX IMVI 0.119 µM | LXFL 529 0.611 µM | M14 0.0953 µM | M19-MEL 0.33 µM | MCF7 < 0.01 µM | MDA-MB-231 0.0148 µM | MDA-MB-435 < 0.01 µM | MDA-N < 0.01 µM | MOLT-4 0.0785 µM | Malme-3M 0.678 µM | NCI-H460 0.0463 µM | NCI-H522 0.0942 µM | OVCAR-8 0.0881 µM | PC-3 < 0.0103 µM | RPMI-8226 0.0757 µM | SF-268 0.0665 µM | SF-295 0.05 µM | SK-MEL-2 0.0451 µM | SK-MEL-5 0.05 µM | SN12C 0.256 µM | SNB-78 0.0953 µM | SW-620 0.0643 µM | U-251 0.0759 µM | UACC-257 0.0582 µM | UACC-62 0.0394 µM | UO-31 0.91 µM | XF498 0.0551 µM
